# In US8524917B2, “6-substituted indole-3-carboxylic acid amide compounds having sphingosine-1-phosphate (S1P) receptor antagonist biological activity” (Allergan, Inc., priority 2007, dated 2013):
# Where two headings read alike, the source gives them in different places.
# Target: human S1P3 receptor (Homo sapiens (Human), UniProt Q99500)
# Assay: Activation or block of activation of human S1P3 receptor, Ca+2 FLIPR assay
# Format: cell-based
# Settings: for Kb: second concentration in the cell, read-out: S1P3 Kb
# Protocol: Compounds were assessed for their ability to activate or block activation of the human S1P3 receptor in T24 cells stably expressing the human S1P3 receptor. Ten thousand cells/well were plated into 384-well poly-D-lysine coated plates one day prior to use. The growth media for the S1P3 receptor expressing cell line was McCoy's 5A medium supplemented with 10% charcoal-treated fetal bovine serum (FBS), 1% antibiotic-antimycotic and 400 μg/ml geneticin. On the day of the experiment, the cells were washed twice with Hank's Balanced Salt Solution supplemented with 20 mM HEPES (HBSS/Hepes buffer). […] Extracellular dye was removed by washing the cell plates four times prior to placing the plates in the FLIPR (Fluorometric Imaging Plate Reader, Molecular Devices). Ligands were diluted in HBSS/Hepes buffer and prepared in 384-well microplates. The positive control, Sphingosine-1-Phosphate (S1P), was diluted in HBSS/Hepes buffer with 4 mg/ml fatty acid free bovine serum albumin. The FLIPR transferred 12.5 μl from the ligand microplate to the cell plate and took fluorescent measurements for 75 seconds, taking readings every second, and then for 2.5 minutes, taking readings every 10 seconds. […] IC50 values were determined through a […] analysis using the Levenburg Marquardt algorithm.
# [1] = T24 cells stably expressing the human S1P3 receptor
# [2] = T24 cells stably expressing the human S1P3 receptor, FLIPR Ca+2 response, 0.61 nM to 10,000 nM, read-out: S1P3 IC50
# [3] = T24 cells stably expressing the human S1P3 receptor, value in brackets
# Chain of human S1P3 receptor (Q99500 whole entry): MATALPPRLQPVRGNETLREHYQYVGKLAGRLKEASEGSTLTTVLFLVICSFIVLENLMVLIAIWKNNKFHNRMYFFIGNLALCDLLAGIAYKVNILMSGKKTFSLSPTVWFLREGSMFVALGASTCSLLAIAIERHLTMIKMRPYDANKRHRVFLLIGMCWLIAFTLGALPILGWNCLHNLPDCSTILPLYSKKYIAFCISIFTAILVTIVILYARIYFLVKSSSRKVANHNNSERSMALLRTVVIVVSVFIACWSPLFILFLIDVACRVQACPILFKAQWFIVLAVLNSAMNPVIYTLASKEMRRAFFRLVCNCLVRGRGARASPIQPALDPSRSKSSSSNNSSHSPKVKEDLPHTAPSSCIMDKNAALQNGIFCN
SMILES,IC50 [2] [nM],S1P3 (% inh) [3],other results
"CC(C)Oc1ccc2c(C(=O)NCc3ccc(F)c(F)c3)c(C(C)C)n(Cc3ccccc3)c2c1 [Compound 11, 1-Benzyl-N-(3,4-difluorobenzyl)-6-isopropoxy-2-isopropyl-1H-indole-3-carboxamide]",,,Kb [1]: 2 nM
"CC(C)c1c(C(=O)NCc2ccc(F)c(F)c2)c2ccc(N)cc2n1Cc1ccccc1 [Compound 125, 6-Amino-1-benzyl-N-(3,4-difluorobenzyl)-2-isopropyl-1H-indole-3-carboxamide]",1700,90%,
"CC(C)c1c(C(=O)NCc2ccc(F)c(F)c2)c2ccc(O)cc2n1Cc1cccnc1 [Compound 151, N-(3,4-Difluorobenzyl)-6-hydroxy-2-isopropyl-1-(pyridin-3-ylmethyl)-1H-indole-3-carboxamide]",,,S1P3 (% inh): 65 nM (98) %; IC50 (read-out: S1P3 IC50): 65 nM
"CC(C)c1c(C(=O)NCc2ccc(F)cc2)c2ccc(NC3CCCC3)cc2n1Cc1ccccc1 [Compound 192, 1-Benzyl-6-(cyclopentylamino)-N-(4-fluorobenzyl)-2-isopropyl-1H-indole-3-carboxamide]",,,S1P3 (% inh): 70 nM (100) %; IC50 (read-out: S1P3 IC50): 70 nM
"CC[C@H]1COC(c2ccc3c(C(=O)NCc4ccc(F)c(F)c4)c(C(C)C)n(Cc4ncco4)c3c2)=N1 [Compound 83, (S)—N-(3,4-Difluorobenzyl)-6-(4-ethyl-4,5-dihydrooxazol-2-yl)-2-isopropyl-1-(oxazol-2-ylmethyl)-1H-indole-3-carboxamide]",280,99%,
"CCOC(=O)c1ccc2c(C(=O)NCc3cc(F)cc(F)c3)c(C(C)C)n(Cc3ccccn3)c2c1 [Compound 48, Ethyl 3-(3,5-Difluorobenzylcarbamoyl)-2-isopropyl-1-(pyridin-2-ylmethyl)-1H-indole-6-carboxylate]",24,100%,
"CC(C)Oc1ccc2c(C(=O)NCc3ccc(F)c(F)c3)c(C[N+]3(C)CCCC3)n(Cc3ccccn3)c2c1.[I-] [Compound 176, 1-((3-(3,4-Difluorobenzylcarbamoyl)-6-isopropoxy-1-(pyridin-2-ylmethyl)-1H-indol-2-yl)methyl)-1-methylpyrrolidinium iodide]",7600,98%,
CC(C)c1c(C(=O)NCc2cccnc2)c2ccc(O)cc2n1Cc1ccccn1,,ND (54) %,
"CC(C)c1c(C(=O)NCc2ccc(F)c(F)c2)c2ccc(Oc3nccs3)cc2n1Cc1cccnc1 [Compound 152, N-(3,4-Difluorobenzyl)-2-isopropyl-1-(pyridin-3-ylmethyl)-6-(thiazol-2-yloxy)-1H-indole-3-carboxamide]",17,97%,
"CCOC(=O)c1ccc2c(C(=O)NCc3ccc(F)c(F)c3)c(C(C)C)n(Cc3ccccc3)c2c1 [Compound 43, Ethyl 1-Benzyl-3-(3,4-difluorobenzylcarbamoyl)-2-isopropyl-1H-indole-6-carboxylate]",7,100%,Kb [1]: 8 nM
"COCCOc1ccc2c(C(=O)NCc3ccc(F)c(F)c3)c(C(C)C)n(Cc3ccccc3)c2c1 [Compound 17, 1-Benzyl-N-(3,4-difluorobenzyl)-2-isopropyl-6-(2-methoxyethoxy)-1H-indole-3-carboxamide]",6.5,99%,
CCNCc1ccc2c(C(=O)NCc3ccc(F)c(F)c3)c(C(C)C)n(Cc3ccccc3)c2c1,2500,87%,
"COC(=O)c1c(C(=O)NCc2ccc(F)c(F)c2)c2ccc(OC(C)C)cc2n1Cc1ccccn1 [Compound 226, Methyl 3-(3,4-Difluorobenzylcarbamoyl)-6-isopropoxy-1-(pyridin-2-ylmethyl)-1H-indole-2-carboxylate]",87,100%,
"CC(C)c1c(C(=O)NCc2ccc(F)c(F)c2)c2ccc(NC3CCC3)cc2n1Cc1ccccn1 [Compound 197, 6-(Cyclobutylamino)-N-(3,4-difluorobenzyl)-2-isopropyl-1-(pyridin-2-ylmethyl)-1H-indole-3-carboxamide]",67,100%,
"CC(C)c1c(C(=O)NCc2ccc(F)c(F)c2)c2ccc(N3CCCC3=O)cc2n1Cc1ccccc1 [Compound 128, 1-Benzyl-N-(3,4-difluorobenzyl)-2-isopropyl-6-(2-oxopyrrolidin-1-yl)-1H-indole-3-carboxamide]",502,99%,
CC(C)NC(=O)c1ccc2c(C(=O)NCc3ccc(F)c(F)c3)c(C(C)C)n(Cc3ccccc3)c2c1,634,100%,
CC(C)c1c(C(=O)NCc2ccc(F)c(F)c2)c2ccc(OC3CCN(C(=O)OC(C)(C)C)C3)cc2n1Cc1ccccc1 (stereo not drawn),673,100%,
"CC(C)Cn1c(C(C)C)c(C(=O)NCc2ccc(F)c(F)c2)c2ccc(OC3CCCC3)cc21 [Compound 159, 6-(Cyclopentyloxy)-N-(3,4-difluorobenzyl)-1-isobutyl-2-isopropyl-1H-indole-3-carboxamide]",41,96%,

SMILES,IC50 [2] [nM],S1P3 (% inh) [3],other results
CCO/N=C/c1ccc2c(C(=O)NCc3ccc(F)c(F)c3)c(C(C)C)n(Cc3ccccc3)c2c1,145,99%,
"CCOC(=O)Cn1c(C(C)C)c(C(=O)NCc2ccc(F)c(F)c2)c2ccc(OC3CCCC3)cc21 [Compound 223, Ethyl 2-(6-(Cyclopentyloxy)-3-(3,4-difluorobenzylcarbamoyl)-2-isopropyl-1H-indol-1-yl)acetate]",,,S1P3 (% inh): 24 nM (100) %; IC50 (read-out: S1P3 IC50): 24 nM
"CC(C)C(=O)Oc1ccc2c(C(=O)NCc3ccc(F)c(F)c3)c(C(C)C)n(Cc3ccccc3)c2c1 [Compound 25, 1-Benzyl-3-(3,4-difluorobenzylcarbamoyl)-2-isopropyl-1H-indol-6-yl Isobutyrate]",,,S1P3 (% inh): 14 nM (100) %; IC50 (read-out: S1P3 IC50): 14 nM
"CC(C)Oc1ccc2c(C(=O)NCc3ccc(F)c(F)c3)c(C(C)C)n(Cc3cccnc3)c2c1 [Compound 154, N-(3,4-Difluorobenzyl)-6-isopropoxy-2-isopropyl-1-(pyridin-3-ylmethyl)-1H-indole-3-carboxamide]",15,100%,
"CC(C)c1c(C(=O)NCc2ccc(F)c(F)c2)c2ccc(OC3CCOC3)cc2n1Cc1ccccc1 (stereo not drawn) [Compound 19, 1-Benzyl-N-(3,4-difluorobenzyl)-2-isopropyl-6-(tetrahydrofuran-3-yloxy)-1H-indole-3-carboxamide]",6,100%,
"CC(C)c1c(C(=O)NCc2ccc(F)c(F)c2)c2ccc(C3=N[C@@H](C)CO3)cc2n1Cc1ccccc1 [Compound 76, (S)-1-Benzyl-N-(3,4-difluorobenzyl)-2-isopropyl-6-(4-methyl-4,5-dihydrooxazol-2-yl)-1H-indole-3-carboxamide]",33,99%,
CC(C)c1c(C(=O)NCc2cccnc2)c2ccc(OC3CCCC3)cc2n1Cc1ccccn1,86,95%,
CC(C)COC(=O)c1ccc2c(C(=O)NCc3ccc(F)c(F)c3)c(C(C)C)n(Cc3ccccc3)c2c1,,12 nM (97) %,IC50: 12 nM
COC(=O)c1ccc2c(C(=O)NCc3ccc(F)c(F)c3)c(C(C)C)n(Cc3ccccc3)c2c1,12,100%,
C#CCOc1ccc2c(C(=O)NCc3ccc(F)c(F)c3)c(C(C)C)n(Cc3ccccn3)c2c1,324,99%,
CC(C)c1c(C(=O)NCc2ccc(F)c(F)c2)c2ccc(OC3CCOC3)cc2n1Cc1ccccn1 (stereo not drawn),19,100%,Kb [1]: 21 nM
"Cc1cc(Cn2c(C(C)C)c(C(=O)NCc3ccc(F)c(F)c3)c3ccc(OC4CCCC4)cc32)no1 [Compound 219, 6-(Cyclopentyloxy)-N-(3,4-difluorobenzyl)-2-isopropyl-1-((5-methylisoxazol-3-yl)methyl)-1H-indole-3-carboxamide]",38,99%,
"CC(C)c1c(C(=O)NCc2cncc(F)c2)c2ccc(NC3CCCC3)cc2n1Cc1ccccc1 [Compound 193, 1-Benzyl-6-(cyclopentylamino)-N-((5-fluoropyridin-3-yl)methyl)-2-isopropyl-1H-indole-3-carboxamide]",,,S1P3 (% inh): 163 nM (100) %; IC50 (read-out: S1P3 IC50): 163 nM
CCCNCc1ccc2c(C(=O)NCc3ccc(F)c(F)c3)c(C(C)C)n(Cc3ccccc3)c2c1,2600,77%,
"CC(C)c1c(C(=O)NCc2ccc(F)c(F)c2)c2ccc(C3=NC(C)(C)CO3)cc2n1Cc1ccccc1 [Compound 71, 1-Benzyl-N-(3,4-difluorobenzyl)-6-(4,4-dimethyl-4,5-dihydrooxazol-2-yl)-2-isopropyl-1H-indole-3-carboxamide]",47,97%,
"CC(C)c1c(C(=O)NCc2ccc(F)c(F)c2)c2ccc(NC3CCOC3)cc2n1Cc1ccccc1 (stereo not drawn) [Compound 126, 1-Benzyl-N-(3,4-difluorobenzyl)-2-isopropyl-6-(tetrahydrofuran-3-ylamino)-1H-indole-3-carboxamide]",177,100%,
CC(C)NCc1ccc2c(C(=O)NCc3ccc(F)c(F)c3)c(C(C)C)n(Cc3ccccc3)c2c1,2300,84%,
CCOC(=O)c1ccc2c(C(=O)NCc3cccc(F)c3)c(C(C)C)n(Cc3ccccn3)c2c1,,,IC50: 174 nM; S1P3 (% inh): 174 nM (100) %
